Reference: patent US20220204449A1, “BIASED AGONISTS OF OPIOID RECEPTORS” (ILDONG PHARMACEUTICAL CO., LTD., priority 2020, published 2022)
Entries after “also recorded” stand apart in the source; their conditions may differ.

Experiments:
Assay type in all cases: cell-based
[1] = molecular target: T1, human μ-opioid receptor, OPRM (Homo sapiens, UniProt P35372); assay: cAMP accumulation assay (Gi pathway), OPRM cell line; conditions: Table 1
T1 construct: host or cells: HEK-293 overexpressing β-arrestin2 fused to a β-galactosidase fragment
Excerpt: (§1) Human embryonic kidney 293 (HEK-293) cells which transfected overexpress (3-arrestin2 fused β-galactosidase fragment were purchased from DiscoverX. Human OPRM1 gene (NM 000914.3, encoding human μ-opioid receptor, OPRM) and Human OPRD1 gene (NM 000911.3, encoding human δ-opioid receptor, OPRD) were fused to a pCMV-ProLink plasmid which contains complementary β-galactosidase fragment purchased from DiscoverX. To generate human OPRM1 or OPRD1 expression cell lines, HEK-293 cells were transfected to prepared plasmid and grown in DMEM medium with 10% fetal bovine serum, 150 μg/mL Hygromycin B and 500 μg/mL G418.
(§2) Cyclic Adenosine Monophosphate (cAMP) Accumulation
(§3) The agonist's efficacy to the G protein pathway was determined by changes in the cAMP level using the Cisbio cAMP detection kit. The cells used in cAMP assays are the same cell line as used in the β-arrestin 2 assays. The human opioid receptor activates the Gαi so intracellular cAMP accumulation is inhibited. Cisbio detection kit uses labeled cAMP and antibody. This system proceeds to compete with endogenous cAMP. If Gαi is activated, intracellular cAMP decreases. This assures that labeled-cAMP binds more with the antibody so that time-resolved fluorescence […].
(§4) cAMP and β-arrestin assays described above were conducted to decide whether candidate compounds were μ- and/or δ-opioid receptor bias agonists for the G-protein pathway. All assays produced the concentration-response curve, and the curve data was validated by a quality control factor named Z′ factor. Because half-maximal effect concentration (EC50) depends on the population of receptors, the maximal asymptote of the concentration curve was used. Efficacy data of candidates was normalized by comparison to reference agonists DAMGO and SNC80 for OPRM and OPRD.
(§5) The hill slope describes the steepness of the curve. […] We set the appropriate interval of hill slope as 0.8<n<1.5 which maintains the sigmoidal curve shape.

[2] = molecular target: T2, human δ-opioid receptor, OPRD (Homo sapiens, UniProt P41143); assay: cAMP accumulation assay (Gi pathway), OPRD cell line; conditions: for OPRD Gi Hill slope: cAMP concentration-response curve; for EC50: read-out: OPRD Gi EC50
T2 construct: host or cells: HEK-293 overexpressing β-arrestin2 fused to a β-galactosidase fragment
Excerpt: as §1, §2, §3, §4, §5

[3] = molecular target: T1, human μ-opioid receptor, OPRM; assay: PathHunter β-arrestin 2 assay, OPRM cell line
Excerpt: as §1
(§6) The PathHunter enzyme assay was performed to measure the agonist's capability of β-arrestin 2 pathway activation. When agonists bind to G protein-coupled receptor (GPCR), the receptor pathway is sequentially activated from G protein to β-arrestin 2 recruitment.
(§7) Because […] β-arrestin 2 and C-terminal of GPCR have a fragment of β-galactosidase, recruitment of β-arrestin 2 to GPCR forms the whole β-galactosidase. The functionality of the whole β-galactosidase is detected by chemiluminescence (FlexStation3, Molecular Devices).
as §4

[4] = molecular target: T2, human δ-opioid receptor, OPRD; assay: PathHunter β-arrestin 2 assay, OPRD cell line
Excerpt: as §1, §6, §7, §4

[5] = molecular target: T1, human μ-opioid receptor, OPRM; assay: Dominant assay: cAMP assay with/without irreversible antagonist β-FNA, OPRM cell line
Excerpt: (§8) To confirm the agonist's efficacy in a nature-like system, we need inactivation of target receptors on the cell membrane. Most cell lines have an abundant target receptor population (also known as spare receptors). Therefore, agonists have more opportunity to constitute agonist-receptor conformation. In this environment, not only full agonists but also partial agonists can reach maximal response.
(§9) If the partial agonist is selected as a full agonist, translational in vivo research will likely fail.
(§10) Non-competitive, irreversible antagonists can be applicable to judge the pharmacological character of agonists because they permanently decrease the receptor population in the cell line system. β-FNA or β-CNA is used as a non-competitive and irreversible antagonist for OPRM, OPRD. Before cAMP assay, cells were incubated with β-FNA or β-CNA for 40 minutes. Afterwards, the procedure is the same.
(§11) If a partial agonist compound acts as a full agonist due to receptor population (pseudo full agonist), it cannot sustain maximal response with reduced receptor population. However, a full agonist compound maintains their maximal response even though increased EC50.

[6] = molecular target: T2, human δ-opioid receptor, OPRD; assay: Dominant assay: cAMP assay with/without irreversible antagonist β-CNA, OPRD cell line; conditions: for completeness of concentration-response curve, in words: OPRD system
Excerpt: as §8, §9, §10, §11

[7] = addition of β-CNA, Example 3, Tables 5-7, read-out: OPRD Gi β-CNA (+) EC50
[8] = no addition of β-CNA, Example 3, Tables 5-7, read-out: OPRD Gi β-CNA (−) EC50

T2 sequence (P41143 whole entry, the tested form may be a part): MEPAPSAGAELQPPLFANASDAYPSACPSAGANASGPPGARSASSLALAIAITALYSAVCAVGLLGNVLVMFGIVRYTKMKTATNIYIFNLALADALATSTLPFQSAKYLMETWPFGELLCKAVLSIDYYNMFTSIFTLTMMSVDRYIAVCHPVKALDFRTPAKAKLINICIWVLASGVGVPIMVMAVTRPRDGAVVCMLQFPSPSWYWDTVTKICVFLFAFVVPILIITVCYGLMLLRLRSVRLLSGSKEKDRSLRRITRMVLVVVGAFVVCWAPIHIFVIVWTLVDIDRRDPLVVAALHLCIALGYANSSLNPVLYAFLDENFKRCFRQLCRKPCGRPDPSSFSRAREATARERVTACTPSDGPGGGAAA
T1 sequence (P35372 whole entry, the tested form may be a part): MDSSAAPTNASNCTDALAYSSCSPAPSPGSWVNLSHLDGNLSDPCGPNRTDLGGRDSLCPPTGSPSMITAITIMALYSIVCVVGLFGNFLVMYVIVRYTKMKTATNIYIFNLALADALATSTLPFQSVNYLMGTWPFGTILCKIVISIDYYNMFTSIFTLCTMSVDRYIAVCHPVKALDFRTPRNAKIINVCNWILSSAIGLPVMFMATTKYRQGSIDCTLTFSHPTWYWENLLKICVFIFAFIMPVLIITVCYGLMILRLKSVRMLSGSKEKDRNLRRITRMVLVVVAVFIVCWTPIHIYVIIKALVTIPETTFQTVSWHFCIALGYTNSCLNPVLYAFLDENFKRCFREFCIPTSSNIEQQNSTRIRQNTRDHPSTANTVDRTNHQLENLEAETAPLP

`Cc1ccccc1NC(=O)NCC(c1ccc2c(c1)CCO2)N(C)C` (racemic) [Compound 3, 3-[2-(2,3-dihydro-1-benzofuran-5-yl)-2-(dimethylamino)ethyl]-1-(2-methylphenyl)urea] was tested. Which EC50 ([1]; cAMP) did it give?
Its EC50 is 1290 nM.

What about the “OPRM Gi Hill slope” value ([1]; cAMP concentration-response curve) of the same compound?
Its value is 1.48.

And the Emax ([1]; cAMP, normalized to reference agonist DAMGO)?
Its Emax is 112%.

What about the “OPRD Gi Hill slope” value ([2]; Table 1) of the same compound?
The value was 1.16.

And the Emax ([2]; Table 1, cAMP, normalized to reference agonist SNC80)?
Its Emax is 94.6%.

And the EC50 ([2]; Table 1, cAMP)?
Its EC50 is 8370 nM.

And the Emax ([3]; Example 3, Tables 5-7, read-out: OPRM β-ARR2 Emax (%))?
The Emax was 12.2%.

And the Emax ([3]; Table 1, normalized to reference agonist DAMGO, read-out: OPRM arrestin Emax, %)?
Its Emax is 12.2%.

What about the Emax ([4]; Example 3, Tables 5-7, read-out: OPRD β-ARR2 Emax (%)) of the same compound?
The Emax was 1.99%.

And the Emax ([4]; Table 1, normalized to reference agonist SNC80, read-out: OPRD arrestin Emax, %)?
Its Emax is 1.99%.

What about the “maximal response on decreasing receptor population (dominant tendency), in words” value ([5]; OPRM cell lines, β-FNA) of the same compound?
Its value is “showed a similar pattern as compared to DAMGO”.

What about the EC50 ([5]; addition of β-FNA, Example 3, Tables 5-7, read-out: OPRM Gi β-FNA (+) EC50) of the same compound?
Its EC50 is 1580 nM.

And the Emax ([5]; addition of β-FNA, Example 3, Tables 5-7, read-out: OPRM Gi β-FNA (+) Emax (%))?
The Emax was 91.3%.

What about the EC50 ([5]; addition of β-FNA, repeated dominant assay, Example 4, Tables 8-10, read-out: OPRM Gi β-FNA (+) EC50) of the same compound?
Its EC50 is 22.7 nM.

What about the Emax ([5]; addition of β-FNA, repeated dominant assay, Example 4, Tables 8-10, read-out: OPRM Gi β-FNA (+) Emax (%)) of the same compound?
The Emax was 75.5%.

What about the EC50 ([5]; no addition of β-FNA, Example 3, Tables 5-7, read-out: OPRM Gi β-FNA (−) EC50) of the same compound?
The EC50 was 656 nM.

What about the Emax ([5]; no addition of β-FNA, Example 3, Tables 5-7, read-out: OPRM Gi β-FNA (−) Emax (%)) of the same compound?
Its Emax is 97.9%.

And the EC50 ([5]; no addition of β-FNA, repeated dominant assay, Example 4, Tables 8-10, read-out: OPRM Gi β-FNA (−) EC50)?
The EC50 was 36 nM.

And the Emax ([5]; no addition of β-FNA, repeated dominant assay, Example 4, Tables 8-10, read-out: OPRM Gi β-FNA (−) Emax (%))?
Its Emax is 102%.

What about the “completeness of concentration-response curve, in words” value [6] of the same compound?
The value was “curve was cut due to the X-axis limitation”.

And the EC50 [6, 7]?
The EC50 was 10600 nM.

What about the Emax ([6]; addition of β-CNA, Example 3, Tables 5-7, read-out: OPRD Gi β-CNA (+) Emax (%)) of the same compound?
Its Emax is 50.9%.

And the EC50 ([6]; addition of β-CNA, repeated dominant assay, Example 4, Tables 8-10, read-out: OPRD Gi β-CNA (+) EC50)?
The EC50 was 4450 nM.

And the Emax ([6]; addition of β-CNA, repeated dominant assay, Example 4, Tables 8-10, read-out: OPRD Gi β-CNA (+) Emax (%))?
The Emax was 48.2%.

What about the EC50 [6, 8] of the same compound?
Its EC50 is 4350 nM.

And the Emax ([6]; no addition of β-CNA, Example 3, Tables 5-7, read-out: OPRD Gi β-CNA (−) Emax (%))?
The Emax was 106%.

What about the EC50 ([6]; no addition of β-CNA, repeated dominant assay, Example 4, Tables 8-10, read-out: OPRD Gi β-CNA (−) EC50) of the same compound?
The EC50 was 3630 nM.

What about the Emax ([6]; no addition of β-CNA, repeated dominant assay, Example 4, Tables 8-10, read-out: OPRD Gi β-CNA (−) Emax (%)) of the same compound?
The Emax was 100%.

Which results are given for `C[C@@H](Cc1ccsc1)NC(=O)NC[C@H](Cc1ccc(O)cc1)N(C)C` [PZM21, reference compound]?
Gi pathway agonism, in words ([2]; OPRD): OPRM, OPRD dual biased agonist; OPRD Gi Hill slope ([2]; Table 1): 0.83; EC50 ([2]; Table 1, cAMP): 230 nM; OPRD β-ARR2 Emax (%) ([4]; Example 3, Tables 5-7): 3.41%; OPRD arrestin Emax, % ([4]; Table 1, normalized to reference agonist SNC80): 3.41%; maximal response on decreasing receptor population (dominant tendency), in words ([6]; OPRD cell lines, β-CNA): more susceptible to decreasing receptor populations than SNC80; also recorded: less resistance to decreasing spare receptors than SNC80; completeness of concentration-response curve, in words [6]: produced a full concentration-response curve; OPRD Gi β-CNA (+) Emax (%) ([6]; addition of β-CNA, Example 3, Tables 5-7): 58.77%; EC50 [6, 7]: 288 nM; OPRD Gi β-CNA (−) Emax (%) ([6]; no addition of β-CNA, Example 3, Tables 5-7): 95.97%; EC50 [6, 8]: 119 nM
